Values joined by “and” are separate entries in the source; they are usually repeats but may differ in a detail not shown here. Equal entries are not always repeated. Where two headings read alike, the source gives them in different places. Blank lines part the entries; values can stand above or below the compound they belong to.
How the values were obtained:
[1] = Plasma and brain concentrations (PK) in healthy mice after oral dosing; format: in vivo, Nu/Nu mice; details: for Kp at 72 h: brain/plasma
Description: Healthy male Nu/Nu mice were treated orally with either (i) a single dose of 30 mg/kg Compound of formula (I) ([…], 3 mice per time-point), (ii) 30 mg/kg of Compound of formula (I) given once a day for four consecutive days (27 mice in total, 3 mice per time-point), (iii) 30 mg/kg of AZD-1775 (adavosertib, purchased from Combi-Blocks, San Diego, USA) given twice a day for three consecutive days and once on day four (27 mice in total, 3 mice per time-point), (iv) or 80 mg/kg of Zn-c3 (purchased from EOS Med Chem, Jina City, China) given once a day for four consecutive days (27 mice in total, 3 mice per time-point). The doses used for each compound have previously been reported as active dose levels. Compound of formula (I) was formulated as a suspension in 0.5% methylcellulose with 1% Tween 80 and administered at a concentration of 3.0 mg/mL. […] The dosing volume of all formulations was 10 mL/kg. At designated time-points the mice were euthanized by carbon dioxide inhalation, blood samples were collected by cardiac puncture into K2EDTA containing tubes. The tubes were inverted several times, placed on ice and centrifuged within 30 min of collection (4° C. for 5 min at 6000 rpm) to obtain plasma. The plasma samples were snap frozen in dry ice and stored at −80° C. until analysis. The brain was collected, weighed and snap frozen in dry ice until further analysis. To obtain brain homogenates, firstly water was added to each brain (brain weight:water volume=1:4) then the brain was homogenized with a H-speed dispersator (time procedure: homogenizing for 10 s and interval of 10 s per time, total 3-5 times; cleaning procedure for dispersator: Water-Methanol-Ethanol-Water, 10 s each). The brain homogenate samples were transferred to individual tubes and stored at −80° C. prior to analysis. The mouse plasma and brain samples were analysed as follows. For each analytical batch of plasma and brain samples, the standard and quality control (QC) samples were freshly prepared in blank male Nu/Nu mouse plasma (with K2EDTA anticoagulant) and brain homogenate. To an aliquot of each standard, QC, control blank and study samples, internal standard (^13CD6-Compound of formula (I) for Compound of formula (I), terfenadine for AZD-1775 and Zn-c3) in methanol/acetonitrile (1:1, v/v) was added. The samples were mixed for 1 minute and centrifuged at 4000 rpm at 4° C. for 15 minutes. Supernatants were transferred and diluted in MeOH/water (1:1, v/v, with 0.1% FA) prior to LC-MS/MS injection. Chromatographic separation was achieved on an Shimadzu LC-20AD using a Kinetex 2.6μ C18 100A column (50 mm*3.00 mm) for Compound of formula (I) and AZD-1775 samples and a ACE 5 C4 column (50 mm*2.1 mm) for Zn-c3 samples with gradient elution using the following conditions: flow rate: 0.7 mL/min; run time: 3.0 min; mobile phase: A: 5 mM NH4OAc (0.1% FA), B: Acetonitrile (0.1% FA). Detection was accomplished with an AB Sciex 5500 utilizing electrospray MS/MS in positive ion multiple reaction monitoring mode (MRM). The MRM channels were 511.29/98 for Compound of formula (I), 501.47/442.20 for AZD-1775 and 527.36/468.10 for Zn-c3. The MRM channels of internal standard were 518.17/102.10 (^13CD6-Compound of formula (I)) for Compound of formula (I), 472.40/436.40 (terfenadine) for AZD-1775 and Zn-c3. The measured plasma and brain concentrations at each time-point, the nominal sample collection time, and intended dosages were used for pharmacokinetic analysis. The PK parameters of all study compounds were determined by non-compartmental analysis using WinNonlin Version 8.0 (Pharsight).

[2] = CSF and matching plasma concentrations in glioma patients (clinical trial Arms A and B); format: in vivo, human
Description: In the clinical trial described in Example 9, cerebrospinal fluid (CSF) stabilized with formic acid 0.5% and matching plasma samples collected on K2 EDTA were drawn from 3 patients of Arm A on day 11 of cycle 1 (i.e. 2 patients at 150 mg and 1 patient at 200 mg of Study drug) and 1 patient of Arm B on Week 3 day 1 (i.e. Day 15 after daily doses of Study drug at 90 mg).
Study drug (parent, active moiety) and its active metabolite N^32-desmethyl-Study drug were measured using LC-MS/MS methods. Results were provided in ng per mL of plasma or CSF, and then converted to nmol/L using the molecular weights of the Study drug (511.45 g/mol) and N^32-desmethyl-Study drug (497.42 g/mol).
(§1) Thus, the unbound (or free fraction) of the Study Drug and the N^32-desmethyl-Study drug are calculated.
In CSF, the total protein concentration varies between 0.2% and 0.5% of the total protein concentration of blood (H. Reiber, Clinica Chimica Acta, 2001; Schilde L M et al., PLoS ONE, 2018), therefore the concentration measured in CSF essentially corresponds to the free fraction of the compounds.
For each of the 4 patients, the ratio CSF/plasma of a given compound (Study drug parent or metabolite) was calculated using the CSF concentration of said compound (in nmol/L) and the unbound or free fraction of said compound in plasma (in nmol/L).

[3] = Drug concentration in monkey brain and plasma after daily oral administration for 91 days; format: in vivo, cynomolgus monkeys; details: 10 mg/kg oral once a day for 91 days
Description: Compound of formula (I) was orally given to 3 female cynomolgus monkeys by gavage once a day for 91 days. The volume of administration was 5 mL/kg, and the vehicle was an aqueous solution of 0.5% (w/v) methylcellulose (cps 400) and 1% (w/v) Tween 80. The Compound of formula (I) dose was 10 mg/kg; this dose level was assessed in this study to be the […] no adverse effect level (NOAEL) based on general toxicology evaluation. The animals were necropsied 24 hours after the last dose after an overnight period without food. A sample from brain tissue (left forebrain) was collected from each animal, snap frozen in liquid nitrogen. and stored frozen at <−50° C. Blood samples were taken from the femoral vein into tubes containing K2EDTA, fully inverted approximately 10 times, and placed on crushed wet ice until centrifugation at 2300 g for 10 minutes at approximately 4° C. The resultant plasma was separated, transferred into polypropylene tubes, and frozen at <−50° C. Tissue and plasma samples were transported frozen on dry ice to the respective sites of analysis.
The monkey plasma samples were analyzed for their contents in Compound of formula (I) and N^32-desmethyl-Compound of formula (I) as follows. The plasma samples were fortified in human K2-EDTA plasma (1:9 monkey:human volume ratio) prior to extraction. All solution preparations and dilutions were conducted under sodium vapor light and in “low-binding” quality polypropylene tubes and deep-well plates. The analytes and internal standards (^13CD6-Compound of formula (I) and D7-N^32-desmethyl-Compound of formula (I)) were extracted by protein precipitation with 5M aqueous urea (40 μL for 50 μL plasma), and then analyzed by LC-MS/MS. Chromatographic separation was achieved on an Synergi Polar-RP, 80A, 4 μm 75×2.00 mm column (Phenomenex) with gradient elution using a mixture of 0.1% formic acid in water as eluent A and 0.1% formic acid in acetonitrile as eluent B (5% B from 0 to 0.50 min, 42% B at 4.5 min, 95% B from 4.60 min to 5.50 min, 5% B at 5.60 min, 100% B at 5.70 min, 5% B at 6.40 min, 100% B at 6.50 min, 5% B at 7.00 min; 800 μl/min, 70° C.). Detection was accomplished with a AB Sciex 6500+ mass spectrometer utilizing electrospray MS/MS in positive ion multiple reaction monitoring mode (MRM). The lower limits of quantification for Compound of formula (I) and N^32-desmethyl-Compound of formula (I) were 5.00 ng/mL and 2.50 ng/mL, respectively.
The monkey brain tissue samples were analyzed for their contents in Compound of formula (I) and N^32-desmethyl-Compound of formula (I) as follows. Tissue samples were homogenized in human plasma (1 mg tissue for 10 μL plasma) at +4° C. using a Precelly Evolution system. The analytes (Compound of formula (I) and N^32-desmethyl-Compound of formula (I)) were extracted by protein precipitation with methanol/acetonitrile (9:1, v:v) containing the internal standards (^13CD6-Compound of formula (I) and D7-N^32-desmethyl-Compound of formula (I)) and then analyzed by UHPLC-MS/MS. Chromatographic separation was achieved on a HSS T3 1.8 μm, 2.1×100 mme column (Waters) with gradient elution using a mixture of 0.1% formic acid in water as eluent A, and 0.1% formic acid in acetonitrile as eluent B (20% B from 0 to 0.50 min, 90% B from 1.80 min to 2.30 min, 20% B at 2.60 min; 0.6 mL/min, room temperature). Detection was accomplished with Xevo TQ-S mass spectrometer (Waters) utilizing electrospray MS/MS in positive ion multiple reaction monitoring mode (MRM). The lower limits of quantification for Compound of formula (I) and N^32-desmethyl-Compound of formula (I) were 55.00 ng/g tissue and 22.00 ng/g tissue, respectively.

[4] = tested on: plasma proteins; assay: Binding to plasma proteins; format: in vitro ADME
Description: as §1

[5] = 30 mg/kg, bid for 3 days and once on day 4, oral, day 4
[6] = Arm A, 150 mg, day 11 of cycle 1, listed as N^32-desmethyl-Study drug
[7] = Arm A, 200 mg, day 11 of cycle 1
[8] = Arm B, 90 mg daily, Week 3 day 1 (Day 15)

- AUCInf, brain [1, 5]: 99.7 ng·h/g
- AUCLast, brain [1, 5]: 94.5 ng·h/g
- Cmax, brain [1, 5]: 53.9 ng/g
- Kp at 72 h ([1]; male, Nu/Nu, mouse, po, 30 mg/kg, bid for 3 days and once on day 4, oral, day 4, read-out: Brain to plasma ratio based on AUCInf): 0.051
- Kp at 72 h ([1]; male, Nu/Nu, mouse, po, 30 mg/kg, bid for 3 days and once on day 4, oral, day 4, read-out: Brain to plasma ratio based on AUCLast): 0.048
- Kp at 72 h ([1]; male, Nu/Nu, mouse, po, 30 mg/kg, bid for 3 days and once on day 4, oral, day 4, read-out: Brain to plasma ratio based on Cmax): 0.043
- Cmax ([1]; male, Nu/Nu, mouse, plasma, po, 30 mg/kg, bid for 3 days and once on day 4, oral, day 4): 1260 ng/mL
- AUC(0-inf) ([1]; male, Nu/Nu, mouse, plasma, po, 30 mg/kg, bid for 3 days and once on day 4, oral, day 4, read-out: AUCInf, plasma): 1960 ng·h/mL
- AUC(0-t) ([1]; male, Nu/Nu, mouse, plasma, po, 30 mg/kg, bid for 3 days and once on day 4, oral, day 4, read-out: AUCLast, plasma): 1950 ng·h/mL
Structure (SMILES): C=CCn1c(=O)c2cnc(Nc3ccc(N4CCN(C)CC4)cc3)nc2n1-c1cccc(C(C)(C)O)n1 [AZD-1775, adavosertib, reference compound]

Structure (SMILES): Cc1cc(Nc2ncc3c(n2)N(C)CN(c2c(Cl)cccc2Cl)C3=O)ccc1C1CCNCC1 [N^32-Desmethyl-Compound of formula (I)]
- CSF/plasma ratio ([2]; 4 patients, Arms A and B): about 5%
- CSF concentration [2, 6]: 0.23 nmol/L and 0.26 nmol/L
- CSF to “unbound plasma” ratio [2, 6]: 0.06 and 0.05
- Raw data concentration in CSF [2, 6]: 0.114 ng/mL and 0.128 ng/mL
- Raw data concentration in plasma [2, 6]: 17.7 ng/mL and 15.6 ng/mL
- Unbound plasma concentration [2, 6]: 4.59 nM and 4.05 nM
- CSF concentration [2, 7]: 0.31 nmol/L
- CSF to “unbound plasma” ratio [2, 7]: 0.05
- Raw data concentration in CSF [2, 7]: 0.154 ng/mL
- Raw data concentration in plasma [2, 7]: 23.2 ng/mL
- Unbound plasma concentration [2, 7]: 6.02 nM
- CSF concentration [2, 8]: 0.61 nmol/L
- CSF to “unbound plasma” ratio [2, 8]: 0.05
- Raw data concentration in CSF [2, 8]: 0.302 ng/mL
- Raw data concentration in plasma [2, 8]: 42.8 ng/mL
- Unbound plasma concentration [2, 8]: 11.10 nM
- Active metabolite in plasma as share of Study drug parent ([2]; patient plasma): about 10%
- Mean brain:plasma ratio (±SD), at 24 h post last dose (n = 3) [3]: 0.73 ± 0.21
- Brain:plasma concentration ratio, at 24 h post last dose ([3]; individual animals): 0.49 and 0.81 and 0.88
- Plasma concentration at 24 h post last dose ([3]; individual animals): 531 ng/mL and 233 ng/mL and 365 ng/mL
- Brain concentration at 24 h post last dose ([3]; left forebrain, individual animals): 258 ng/g tissue and 188 ng/g tissue and 323 ng/g tissue
- Bound to plasma proteins [4]: 87.1%

- AUCInf, brain ([1]; mouse, in vivo, po, 80 mg/kg): 878 ng·h/g
- AUCInf, plasma ([1]; mouse, in vivo, po, 80 mg/kg): 14180 ng·h/mL
- AUCLast, brain ([1]; mouse, in vivo, po, 80 mg/kg): 396 ng·h/g
- AUCLast, plasma ([1]; mouse, in vivo, po, 80 mg/kg): 14179 ng·h/mL
- Brain to plasma ratio based on AUCInf ([1]; mouse, in vivo, po, 80 mg/kg): 0.062
- Brain to plasma ratio based on AUCLast ([1]; mouse, in vivo, po, 80 mg/kg): 0.028
- Brain to plasma ratio based on Cmax ([1]; mouse, in vivo, po, 80 mg/kg): 0.035
- Cmax, brain ([1]; mouse, in vivo, po, 80 mg/kg): 97.2 ng/g
- Cmax, plasma ([1]; mouse, in vivo, po, 80 mg/kg): 2773 ng/mL
Structure (SMILES): C=CCn1c(=O)c2cnc(Nc3ccc(N4CCN(C)CC4)cc3)nc2n1-c1ccc2c(n1)[C@@](O)(CC)CC2 [Zn-c3, reference compound]

From patent publication US20260256790A1, “DEBIO-0123 IN COMBINATION WITH TEMOZOLOMIDE AND RADIOTHERAPY FOR USE IN TREATING GLIOMA” (Debiopharm International S.A., priority 2023, published 2026)
